Source: US20200108032A1, “USE OF ISOFERULIC ACID, ISOFERULIC ACID-CONTAINING TRADITIONAL CHINESE MEDICINE EXTRACT AND CIMICIFUGAE RHIZOMA” (BEIJING DITAN HOSPITAL, CAPITAL MEDICAL UNIVERSITY, priority 2017, published 2020)

Assays:
Format in all cases: in vivo, C57BL/6 mice
[1] = test system: granulocytes and NK cells; assay: Proliferation (Ki-67) of granulocytes and NK cells in CIA arthritis mice (flow cytometry); conditions: intracellular Ki-67 expression; 21 days after second immunization; MEAN ± SEM
Source text: Test materials and animals: CD3-PerCP, NK1.1-APC antibody, Ki67-PE antibody, Intracellular Fixation & Permeabilization Buffer Set were purchased from eBioscience; CD48 PE, CD11b FITC and B220-FITC antibodies were purchased from BD Pharmingen company; other required reagents were the same as in Example 7.
Model preparation and drug administration: the administration dose of each treatment group was the same as that of Experimental Example 3. 21 days after the second immunization, the mice were anesthetized.
Animal: C57BL/6 mice, purchased from Beijing Huafukang Biotechnology Co., Ltd.
The proliferation capacity of the spleen Ki-67 expression response cell was detected by flow cytometry. Two tubes of spleen single cell suspension were prepared and used to detect the proliferation of CD48^−CD11b^+ positive granulocytes and CD3^−NK1.1^+B220^−NK cells.
The surface staining procedure was the same as in Experimental Example 7.
Intracellular staining: after surface staining, intracellular staining was performed: 1) added 100 μL of fixed membrane-breaking solution Fixation Buffer, protected it from light at room temperature, fixed the membrane for 40 min; 2) added 1 mL of Permeabilization Buffer and washed twice, discarded the supernatant 3) added 1 μL of Ki-67-PE antibody at room temperature and protected it from light for 40 min; 4) same as step 2); and 5) used flow cytometer BD Calibar to measure the percentages of intracellular Ki-67 expression in CD48^−CD11b+ positive granulocytes, and CD3^−[…]B220^−NK cells, respectively.

[2] = test system: mouse model of ConA hepatitis; assay: Survival rate of hepatitis mouse model of ConA; conditions: ConA 25 mg/kg i.v.; drug by gavage (compatibility 7 g/kg, Cimicifugae rhizoma 2 g/kg, total phenolic acid 300 mg/kg crude drug, isoferulic acid 5 mg/kg); observed at 96 h; model group 20%
Source text: Test materials: ConA was purchased from Sigma; isoferulic acid was purchased from Tianjin Fangfang Technology Co., Ltd.
Animals: C57BL/6 mice, purchased from Beijing Huafukang Biotechnology Co., Ltd.
Grouping: 50 C57BL/6 mice, male, 18-20 g, after 1 day of adaptive breeding, the mice were randomly divided into 5 groups of 10 in each group: ConA model group, Cimicifugae rhizoma compatibility group, Cimicifugae rhizoma group, Cimicifugae rhizoma total phenolic acid group and isoferulic acid group.
Model preparation and drug administration: 150 mg of ConA powder were weighed and dissolved in 40 mL of sterile PBS and left at room temperature for 1 to 2 hours; the solution was intermittently shaken gently to mix well. Low temperature ultrasound promoted dissolution (no more than 5 min each time) and avoided excessive foaming. After the solution was fully dissolved, the volume was adjusted to 50 mL, prepared to a concentration of 3 mg/mL, and filtered under pressure with a 0.45 μm filter. Mice were given a single intravenous injection at 25 mg/kg, with 100 μL per mouse. […]

CIA arthritis mice = assay: Micro-CT of joint structure / bone damage in CIA mice; conditions: 21 days after second immunization, MEAN ± SEM
Source text: (§1) Test materials and animals: Consistent with Experimental Example 3. Anti-type II collagen antibody ELISA kit was purchased from Chondrex, Cytokine & Chemokine 36-Plex Mouse ProcartaPlex™ Panel 1A cytokine and chemokine detection kit was purchased from ThermoFisher.
(§2) Model preparation and drug administration: the drug dosage of each treatment group was the same as that of Experimental Example 3. After 21 days of the second immunization, the mice were anesthetized.
(1) Micro-CT technology was used to examine the effect of each drug group on the joint structure of CIA mice. After taking 3 mice from each group, the right hind limbs were taken immediately after neck dissection and fixed in 4% neutral formalin. After 2-3 days of fixation, a micro-CT scan was performed using a live animal imaging system. Extraction site: extracted the data of the area above the tibial plaque plate of the right hind limb of the mouse. 3 sets of data were taken. Size selection: the upper part of the tibial plaque plate (0.25*0.25*0.25); measurement indicators of the extracted bones: bone density, bone volume, bone volume fraction and number of bone trabeculae.

[3] = test system: mouse model of ConA hepatitis; assay: Serum ALT and AST in mouse model of ConA hepatitis; conditions: serum 10 hours after ConA 15 mg/kg i.v.; doses as Experimental Example 1; MEAN ± SEM
Experimental: The test materials and animals were the same as those in Experimental Example 1.
Grouping: C57BL/6 mice, male, 18-20 g, after 1 day of adaptive breeding, the mice were randomly divided into 6 groups: normal control group; ConA model group, Cimicifugae rhizoma compatibility group, Cimicifugae rhizoma group, Cimicifugae rhizoma total phenolic acid group and isoferulic acid group.
Model preparation and drug administration: except the normal control group, mice were injected intravenously once at a dose of ConA 15 mg/kg. The dosages of each drug group were the same as those of Experimental Example 1.
(1) The effects of each drug group on serum ALT and AST of ConA mice were examined. Eight mice in each group were sacrificed under anesthesia 10 hours after ConA injection. Peripheral blood was taken and serum was separated to detect ALT and AST.

[4] = test system: joint tissue cytokines IL-9, IL-18 and MIP-2; assay: Joint tissue cytokines in CIA arthritis mice (multi-factor detection); conditions: MEAN ± SEM
Source text: as §1, §2
(3) The effects of each drug group on cytokine secretion in serum and joint tissues of CIA mice were measured. Seven mice from each group were examined; peripheral blood was collected and separated from serum. Cytokines in serum were detected by multiple factors: IFN-γ, IL-6, IL-9, IL-12, IL-17A, IP-10, MCP-1, MCP-3. MIP-1α, MIP-1β, Eotaxin, and G-CSF; the right hind limb knees, joints and claws were taken and stored in liquid nitrogen for quick freezing, then homogenized and extracted protein. Multi-factor detection of cytokines in tissues: IL-9, IL-18 and MIP-2 secretion.

[5] = test system: anti-type II collagen antibody; assay: Serum anti-type II collagen antibody content in CIA mice (ELISA); conditions: 21 days after second immunization
Source text: as §1, §2
(2) The effects of each drug group on the anti-type II collagen antibody content in the serum of CIA mice were measured. Seven mice from each group were examined; peripheral blood was collected and separated from serum. Anti-type II collagen antibodies were detected with Elisa.

Q: With COc1ccc(C=CC(=O)O)cc1O [isoferulic acid, 3-hydroxy-4-methoxycinnamic acid] as the compound, how does the “Proliferation of Granulocytes, bone marros” value [1] read?
A: Its value is 27.8 ± 8.2 %.

Q: And the “Proliferation of Granulocytes, spleen” value [1]?
A: The value was 26.8 ± 12.5 %.

Q: What about the “Proliferation of NK cells, spleen” value [1] of the same compound?
A: Its value is 14 ± 9 %.

Q: And the “survival rate of mice” value [2]?
A: The value was 60%.

Q: And the Bone density (CIA arthritis mice; area above tibial plate of right hind limb)?
A: Its Bone density is 9.5 ± 1.5 mg/cc.

Q: What about the Bone volume (CIA arthritis mice; right hind limb) of the same compound?
A: The Bone volume was 0.0014 ± 0.0005 mm 3.

Q: What about the Bone volume fraction (CIA arthritis mice; right hind limb) of the same compound?
A: The Bone volume fraction was 0.095 ± 0.034.

Q: And the number of trabeculae (CIA arthritis mice; right hind limb)?
A: Its number of trabeculae is 2.042 ± 0.572 1/mm.

Q: And the ALT [3]?
A: The ALT was 3573 ± 1314 U/L.

Q: What about the AST [3] of the same compound?
A: The AST was 4351 ± 1588 U/L.

Q: And the “Joint tissue IL-9” value [4]?
A: Its value is 3.2 ± 1.5 pg/mg.

Q: And the “Joint tissue IL-18” value [4]?
A: The value was 111.1 ± 125 pg/mg.

Q: What about the “Joint tissue MIP-2” value [4] of the same compound?
A: Its value is 61.2 ± 45.8 pg/mg.

Q: And the “Anti-type II collagen antibody” value [5]?
A: Its value is 9610 ± 664 Units/ml.
